Measured values: the supplement of paper PMC13380429

Assays:
[1] = system: A549-ACE2; assay: drug-induced phospholipidosis relative to tamoxifen; higher = more phospholipidosis
[2] = system: A549-ACE2 infected with SARS-CoV-2; assay: morphology score (similarity to uninfected cells); higher = more like uninfected cells; conditions: 24 h
[3] = system: Caco-2; assay: relative viability EC50 (midpoint between 100% and the lowest measured viability); higher = less toxic; conditions: 72 h
[4] = system: Vero E6; assay: as above; conditions: 72 h
[5] = system: Calu-3; assay: as above; conditions: 72 h
[6] = system: U2OS; assay: as above; conditions: 72 h
[7] = system: Caco-2; assay: drug sensitivity score (DSS) for viability; higher = more toxic; extreme values may be limits of the assay; conditions: 72 h
[8] = system: Vero E6; assay: as above; conditions: 72 h
[9] = system: HepG2; assay: as above; conditions: 72 h
[10] = system: Calu-3; assay: as above; conditions: 72 h
[11] = system: U2OS; assay: as above; conditions: 72 h
[12] = system: A549-ACE2; assay: phospholipidosis EC50; higher = less potent phospholipidosis inducer
[13] = system: Caco-2; assay: cell viability relative to DMSO; higher = less toxic; conditions: 72 h
[14] = system: Vero E6; assay: as above; conditions: 72 h
[15] = system: HepG2; assay: as above; conditions: 72 h
[16] = system: Calu-3; assay: as above; conditions: 72 h
[17] = system: U2OS; assay: as above; conditions: 72 h
[18] = system: A549-ACE2 infected with SARS-CoV-2; assay: SARS-CoV-2 infection rate relative to DMSO; higher = more infection; conditions: 24 h
[19] = system: A549-ACE2 infected with SARS-CoV-2; assay: cell count relative to DMSO; higher = less toxic; conditions: 24 h
[20] = system: HepG2; assay: relative viability EC50 (midpoint between 100% and the lowest measured viability); higher = less toxic; conditions: 72 h

CC1(N2CCC(n3c([C@@H]4CCCNC4)nc4ccccc43)CC2)CCCCCCC1 [MCOPPB]
drug-induced phospholipidosis [%], [1]
Conditions	0.3 µM	0.833333 µM	3.33333 µM	6.66667 µM	10 µM	30 µM
24 h	5.09	34	89.2	113	138	112
48 h	5.47	17.9	70.6	117	145	111
72 h	4.22	12.1	45	98.9	137	141

Conditions	SARS-CoV-2 infection rate [%]	cell count [%]	cell viability [%]	morphology score	phospholipidosis EC50 [µM]
[2], 0.3 µM	–	–	–	0.38	–
[2], 3 µM	–	–	–	0.73	–
[2], 10 µM	–	–	–	0.28	–
[2], 30 µM	–	–	–	-0.07	–
[12], 24 h	–	–	–	–	1.64
[12], 48 h	–	–	–	–	3.3
[12], 72 h	–	–	–	–	4.88
[13], 1 nM	–	–	111	–	–
[13], 10 nM	–	–	105	–	–
[13], 100 nM	–	–	93.5	–	–
[13], 1000 nM	–	–	100	–	–
[13], 10000 nM	–	–	89.3	–	–
[14], 1 nM	–	–	101	–	–
[14], 10 nM	–	–	101	–	–
[14], 100 nM	–	–	106	–	–
[14], 1000 nM	–	–	99	–	–
[14], 10000 nM	–	–	98.9	–	–
[15], 1 nM	–	–	94	–	–
[15], 10 nM	–	–	100	–	–
[15], 100 nM	–	–	99.5	–	–
[15], 1000 nM	–	–	87.5	–	–
[15], 10000 nM	–	–	55.1	–	–
[16], 1 nM	–	–	99.2	–	–
[16], 10 nM	–	–	99.8	–	–
[16], 100 nM	–	–	91.6	–	–
[16], 1000 nM	–	–	99	–	–
[16], 10000 nM	–	–	7.3	–	–
[17], 1 nM	–	–	98.6	–	–
[17], 10 nM	–	–	104	–	–
[17], 100 nM	–	–	98.6	–	–
[17], 1000 nM	–	–	100	–	–
[17], 10000 nM	–	–	91.4	–	–
[18], 0.3 µM	89	–	–	–	–
[18], 3 µM	23	–	–	–	–
[18], 10 µM	16	–	–	–	–
[18], 30 µM	27	–	–	–	–
[19], 0.3 µM	–	106	–	–	–
[19], 3 µM	–	115	–	–	–
[19], 10 µM	–	119	–	–	–
[19], 30 µM	–	120	–	–	–

Conditions	drug sensitivity score	relative viability EC50 [µM]
[3]	–	> 10
[4]	–	> 10
[5]	–	3.09
[6]	–	> 10
[7]	0	–
[8]	0	–
[9]	4.2	–
[10]	5.3	–
[11]	0	–

COc1cccc([C@@H](C)NCCCc2ccccc2Cl)c1 [tecalcet]
drug-induced phospholipidosis [%], [1]
Conditions	0.3 µM	0.833333 µM	3.33333 µM	6.66667 µM	10 µM	30 µM
24 h	3.6	1.52	14.2	49.8	74.2	90
48 h	5	4.11	18.9	41.5	67.1	98.2
72 h	7.69	2.06	15.2	34.4	61.6	117

Conditions	SARS-CoV-2 infection rate [%]	cell count [%]	cell viability [%]	morphology score	phospholipidosis EC50 [µM]
[2], 0.3 µM	–	–	–	-0.35	–
[2], 3 µM	–	–	–	0.47	–
[2], 10 µM	–	–	–	0.9	–
[2], 30 µM	–	–	–	0.78	–
[12], 24 h	–	–	–	–	6.31
[12], 48 h	–	–	–	–	8.26
[12], 72 h	–	–	–	–	11.4
[13], 1 nM	–	–	101	–	–
[13], 10 nM	–	–	94.8	–	–
[13], 100 nM	–	–	94.5	–	–
[13], 1000 nM	–	–	92.4	–	–
[13], 10000 nM	–	–	86.3	–	–
[14], 1 nM	–	–	108	–	–
[14], 10 nM	–	–	103	–	–
[14], 100 nM	–	–	101	–	–
[14], 1000 nM	–	–	101	–	–
[14], 10000 nM	–	–	96.2	–	–
[15], 1 nM	–	–	92.9	–	–
[15], 10 nM	–	–	101	–	–
[15], 100 nM	–	–	101	–	–
[15], 1000 nM	–	–	108	–	–
[15], 10000 nM	–	–	83.1	–	–
[17], 1 nM	–	–	101	–	–
[17], 10 nM	–	–	97.6	–	–
[17], 100 nM	–	–	101	–	–
[17], 1000 nM	–	–	102	–	–
[17], 10000 nM	–	–	90.2	–	–
[18], 0.3 µM	111	–	–	–	–
[18], 3 µM	84	–	–	–	–
[18], 10 µM	52	–	–	–	–
[18], 30 µM	10	–	–	–	–
[19], 0.3 µM	–	97	–	–	–
[19], 3 µM	–	105	–	–	–
[19], 10 µM	–	116	–	–	–
[19], 30 µM	–	112	–	–	–

Conditions	drug sensitivity score	relative viability EC50 [µM]
[3]	–	> 10
[4]	–	> 10
[6]	–	> 10
[7]	0.2	–
[8]	0	–
[9]	0.2	–
[11]	0	–
[20]	–	> 10
